{"source": "patent US20230022157A1", "about": "(Achillion Pharmaceuticals, Inc., priority 2018, published 2023)", "data": [{"molecular_target": "T1, Human Factor D (Homo sapiens, UniProt P00746)", "T1 construct": "purified from human serum; purchased Complement Technology, Inc; host or cells: human serum (natural protein, not recombinant)", "T1 sequence (P00746 26-253)": "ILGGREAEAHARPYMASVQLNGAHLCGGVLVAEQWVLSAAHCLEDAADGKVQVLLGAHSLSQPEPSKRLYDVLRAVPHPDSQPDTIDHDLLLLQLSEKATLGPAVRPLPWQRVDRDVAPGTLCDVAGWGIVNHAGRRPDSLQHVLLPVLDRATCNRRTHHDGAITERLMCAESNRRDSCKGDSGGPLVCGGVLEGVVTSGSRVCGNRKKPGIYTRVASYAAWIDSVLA", "experiment": "Human Factor D Assay", "format": "biochemical", "settings": "Human Factor D 80 nM, substrate Z-L-Lys-SBzl, assay of Example 3; read-out: IC50 (Stars)", "description": "(§1) Human Factor D (purified from human serum, Complement Technology, Inc.) at 80 nM final concentration is incubated with test compound at various concentrations for 5 min at room temperature in 50 mM Tris, 1M NaCl, pH 7.5. A synthetic substrate Z-L-Lys-SBzl and DTNB (Ellman's reagent) are added to final concentrations of 100 μM each. […] IC50 values are calculated by nonlinear regression of complement Factor D reaction rates as a function of test compound concentration.", "units": {"IC50": "µM"}, "values": [{"smiles": "CC(=O)c1nn(CC(=O)N2[C@H](C(=O)Nc3nc(Br)ccc3C)C[C@@]3(CO)C[C@@H]23)c2c(C)cc(-c3cnc(C)nc3)cc12", "note": "[Compound 21, (1R,3S,5S)-2-(2-(3-Acetyl-7-methyl-5-(2-methylpyrimidin-5-yl)-1H-indazol-1-yl)acetyl)-N-(6-bromo-3-methylpyridin-2-yl)-5-(hydroxymethyl)-2-azabicyclo[3.1.0]hexane-3-carboxamide]", "IC50": "< 1"}, {"smiles": "CC(=O)c1nn(CC(=O)N2[C@H](C(=O)Nc3nc(C(F)(F)F)ccc3C)C[C@@]3(C)C[C@@H]23)c2ccc(-c3cncc(S(N)(=O)=O)c3)cc12", "note": "[Compound 22, (1R,3S,5R)-2-(2-(3-Acetyl-5-(5-sulfamoylpyridin-3-yl)-1H-indazol-1-yl)acetyl)-5-methyl-N-(3-methyl-6-(trifluoromethyl)pyridin-2-yl)-2-azabicyclo[3.1.0]hexane-3-carboxamide]", "IC50": "< 1"}, {"smiles": "CC(=O)c1nn(CC(=O)N2[C@H](C(=O)N[C@@H](C)CC(C)C)C[C@@]3(C)C[C@@H]23)c2ccc(-c3cnc(C)nc3)cc12", "note": "[Compound 10, (1R,3S,5R)-2-(2-(3-Acetyl-5-(2-methylpyrimidin-5-yl)-1H-indazol-1-yl)acetyl)-5-methyl-N—((S)-4-methylpentan-2-yl)-2-azabicyclo[3.1.0]hexane-3-carboxamide]", "IC50": "< 1"}]}, {"molecular_target": "T1, Human Factor D", "experiment": "Human Factor D Assay", "format": "biochemical", "settings": "Human Factor D 80 nM, substrate Z-L-Lys-SBzl; Table 2; read-out: IC50 (Stars)", "description": "as §1", "units": {"IC50": "µM"}, "values": [{"smiles": "CC(=O)c1cn(CC(=O)N2[C@H](C(=O)Nc3nc(Br)ccc3C)C[C@@]3(C)C[C@@H]23)c2c(C)cc(-c3cnc(CF)nc3)cc12", "note": "[Compound 221, (1R,3S,5R)-2-(2-(3-acetyl-5-(2-(fluoromethyl)pyrimidin-5-yl)-7-methyl-1H-indol-1-yl)acetyl)-N-(6-bromo-3-methylpyridin-2-yl)-5-methyl-2-azabicyclo[3.1.0]hexane-3-carboxamide]", "IC50": "< 1"}, {"smiles": "CC(=O)c1cn(CC(=O)N2[C@H](C(=O)Nc3ccc(C)c(Br)n3)C[C@@]3(C)C[C@@H]23)c2c(C)cc(-c3cnc(C)nc3)cc12", "note": "[Compound 156, (1R,3S,5R)-2-(2-(3-acetyl-7-methyl-5-(2-methylpyrimidin-5-yl)-1H-indol-1-yl)acetyl)-N-(6-bromo-5-methylpyridin-2-yl)-5-methyl-2-azabicyclo[3.1.0]hexane-3-carboxamide]", "IC50": "< 1"}, {"smiles": "CC(=O)c1cn(CC(=O)N2[C@H](C(=O)Nc3nc(Br)ccc3C)C[C@@]3(C)C[C@@H]23)c2c(C)cc(-c3cnc(C(C)O)nc3)cc12", "note": "(stereo partly drawn) [Compound 157, (1R,3S,5R)-2-(2-(3-acetyl-5-(2-(1-hydroxyethyl)pyrimidin-5-yl)-7-methyl-1H-indol-1-yl)acetyl)-N-(6-bromo-3-methylpyridin-2-yl)-5-methyl-2-azabicyclo[3.1.0]hexane-3-carboxamide]", "IC50": "< 1"}, {"smiles": "CC(=O)c1nn(CC(=O)N2[C@H](C(=O)NC3CCCC4(C3)OCCO4)C[C@@]3(C)C[C@@H]23)c2c(C)cc(-c3cnc(C)nc3)cc12", "note": "(stereo partly drawn) [Compound 137, (1R,3S,5R)-2-{2-[3-acetyl-7-methyl-5-(2-methylpyrimidin-5-yl)indazol-1-yl]acetyl}-N-{1,4-dioxaspiro[4.5]decan-7-yl}-5-methyl-2-azabicyclo[3.1.0]hexane-3-carboxamide]", "IC50": "< 1"}, {"smiles": "COc1cc(Br)nc(NC(=O)[C@@H]2C[C@@]3(C)C[C@H]3N2C(=O)Cn2nc(C(C)=O)c3cc(-c4cnc(CO)nc4)cc(C)c32)c1", "note": "[Compound 65, (1R,3S,5R)-2-(2-(3-acetyl-5-(2-(hydroxymethyl)pyrimidin-5-yl)-7-methyl-11H-indazol-1-yl)acetyl)-N-(6-bromo-4-methoxypyridin-2-yl)-5-methyl-2-azabicyclo[3.1.0]hexane-3-carboxamide]", "IC50": "< 1"}, {"smiles": "CC(=O)c1nn(CC(=O)N2[C@H](C(=O)Nc3cncc(Br)n3)C[C@@]3(C)C[C@@H]23)c2c(C)cc(-c3cnc(C(=O)O)nc3)cc12", "note": "[Compound 43, 5-(3-acetyl-1-(2-((1R,3S,5R)-3-((6-bromopyrazin-2-yl)carbamoyl)-5-methyl-2-azabicyclo[3.1.0]hexan-2-yl)-2-oxoethyl)-7-methyl-1H-indazol-5-yl)pyrimidine-2-carboxylic acid]", "IC50": "< 1"}, {"smiles": "CC(=O)c1nn(CC(=O)N2C[C@H]3C[C@H]3[C@H]2C(=O)Nc2nc(Br)ccc2Cl)c2c(C)cc(-c3cnc(C(C)O)nc3)cc12", "note": "(some centres unmarked) [Compound 166]", "IC50": "< 1"}, {"smiles": "CC(=O)c1nn(CC(=O)N2[C@H](C(=O)Nc3cc(C)cc(Br)n3)C[C@@]3(C)C[C@@H]23)c2c(C)cc(-c3cnc(CO)nc3)cc12", "note": "[Compound 93, (1R,3S,5R)-2-(2-(3-acetyl-5-(2-(hydroxymethyl)pyrimidin-5-yl)-7-methyl-1H-indazol-1-yl)acetyl)-N-(6-bromo-4-methylpyridin-2-yl)-5-methyl-2-azabicyclo[3.1.0]hexane-3-carboxamide]", "IC50": "< 1"}, {"smiles": "CC(=O)c1cn(CC(=O)N2[C@H](C(=O)Nc3nc(OC(F)(F)F)ccc3C)C[C@@]3(C)C[C@@H]23)c2c(C)cc(-c3cnc4cc(C)nn4c3)cc12", "note": "[Compound 206, (1R,3S,5R)-2-(2-(3-acetyl-7-methyl-5-(2-methylpyrazolo[1,5-a]pyrimidin-6-yl)-1H-indol-1-yl)acetyl)-5-methyl-N-(3-methyl-6-(trifluoromethoxy)pyridin-2-yl)-2-azabicyclo[3.1.0]hexane-3-carboxamide]", "IC50": "< 1"}, {"smiles": "CC(=O)c1nn(CC(=O)N2[C@H]3CC[C@H](C3)[C@H]2C(=O)Nc2nc(C(F)(F)F)ccc2C)c2c(C)cc(-c3cnc4cc(C)nn4c3)cc12", "note": "[Compound 223, (1S,3S,4R)-2-(2-(3-acetyl-7-methyl-5-(2-methylpyrazolo[1,5-a]pyrimidin-6-yl)-1H-indazol-1-yl)acetyl)-N-(3-methyl-6-(trifluoromethyl)pyridin-2-yl)-2-azabicyclo[2.2.1]heptane-3-carboxamide]", "IC50": "< 1"}, {"smiles": "CC(=O)c1nn(CC(=O)N2[C@H](C(=O)N[C@H](C)C3CCCCC3)C[C@@]3(C)C[C@@H]23)c2c(C)cc(-c3cnc(C)nc3)cc12", "note": "[Compound 70, (1R,3S,5R)-2-(2-(3-acetyl-7-methyl-5-(2-methylpyrimidin-5-yl)-1H-indazol-1-yl)acetyl)-N—((R)-1-cyclohexylethyl)-5-methyl-2-azabicyclo[3.1.0]hexane-3-carboxamide]", "IC50": "< 1"}, {"smiles": "CC(=O)c1nn(CC(=O)N2[C@H](C(=O)N[C@@H]3CCCCC34OCCO4)C[C@@]3(C)C[C@@H]23)c2c(C)cc(-c3cnc(C)nc3)cc12", "note": "(single isomer, unassigned) [Compound 136]", "IC50": "< 1"}, {"smiles": "CC(=O)c1nn(CC(=O)N2[C@H](C(=O)Nc3nc(C(F)(F)F)ccc3C)C[C@@]3(C)C[C@@H]23)c2c(CF)cc(-c3cnc(C)nc3)cc12", "note": "[Compound 237, (1R,3S,5R)-2-(2-(3-acetyl-7-(fluoromethyl)-5-(2-methylpyrimidin-5-yl)-1H-indazol-1-yl)acetyl)-5-methyl-N-(3-methyl-6-(trifluoromethyl)pyridin-2-yl)-2-azabicyclo[3.1.0]hexane-3-carboxamide]", "IC50": "< 1"}, {"smiles": "CC(=O)c1nn(CC(=O)N2[C@H](C(=O)Nc3cncc(Br)n3)C[C@@]3(C)C[C@@H]23)c2c(C)cc(-c3cnc(CO)nc3)cc12", "note": "[Compound 48, (1R,3S,5R)-2-(2-(3-acetyl-5-(2-(hydroxymethyl)pyrimidin-5-yl)-7-methyl-11H-indazol-1-yl)acetyl)-N-(6-bromopyrazin-2-yl)-5-methyl-2-azabicyclo[3.1.0]hexane-3-carboxamide]", "IC50": "< 1"}, {"smiles": "CC(=O)c1nn(CC(=O)N2[C@H](C(=O)Nc3nc(Br)ccc3C)C[C@@]3(C)C[C@@H]23)c2c(C)cc(-c3cnc(C4(O)CC4)nc3)cc12", "note": "[Compound 169]", "IC50": "< 1"}, {"smiles": "CC(=O)c1nn(CC(=O)N2[C@H](C(=O)Nc3nc(Br)ccc3C)C[C@@]3(C)C[C@@H]23)c2c(C)cc(-c3cnc(C#N)nc3)cc12", "note": "[Compound 57, (1R,3S,5R)-2-(2-(3-acetyl-5-(2-cyanopyrimidin-5-yl)-7-methyl-1H-indazol-1-yl)acetyl)-N-(6-bromo-3-methylpyridin-2-yl)-5-methyl-2-azabicyclo[3.1.0]hexane-3-carboxamide]", "IC50": "< 1"}, {"smiles": "COCCOC[C@@]12C[C@@H](C(=O)Nc3nc(Br)ccc3C)N(C(=O)Cn3nc(C(C)=O)c4cc(-c5cnc(CO)nc5)cc(C)c43)[C@@H]1C2", "note": "[Compound 108, (1R,3S,5S)-2-(2-(3-acetyl-5-(2-(hydroxymethyl)pyrimidin-5-yl)-7-methyl-1H-indazol-1-yl)acetyl)-N-(6-bromo-3-methylpyridin-2-yl)-5-((2-methoxyethoxy)methyl)-2-azabicyclo[3.1.0]hexane-3-carboxamide]", "IC50": "1 to 10"}, {"smiles": "CC(=O)c1nn(CC(=O)N2[C@H](C(=O)Nc3nc(Br)ccc3C3CC3)C[C@@]3(C)C[C@@H]23)c2ccc(-c3cnc(CO)nc3)cc12", "note": "[Compound 81, (1R,3S,5R)-2-(2-(3-acetyl-5-(2-(hydroxymethyl)pyrimidin-5-yl)-1H-indazol-1-yl)acetyl)-N-(6-bromo-3-cyclopropylpyridin-2-yl)-5-methyl-2-azabicyclo[3.1.0]hexane-3-carboxamide]", "IC50": "< 1"}, {"smiles": "COCC(Cc1ccccc1)NC(=O)[C@@H]1C[C@@]2(C)C[C@H]2N1C(=O)Cn1nc(C(C)=O)c2cc(-c3cnc(C)nc3)cc(C)c21", "note": "(stereo partly drawn) [Compound 172, (1R,3S,5R)-2-{2-[3-acetyl-7-methyl-5-(2-methylpyrimidin-5-yl)indazol-1-yl]acetyl}-N-(1-methoxy-3-phenylpropan-2-yl)-5-methyl-2-azabicyclo[3.1.0]hexane-3-carboxamide]", "IC50": "< 1"}, {"smiles": "CC(=O)c1nn(CC(=O)N2[C@H](C(=O)Nc3nc(Br)ccc3C3CC3)C[C@@]3(C)C[C@@H]23)c2c(C)cc(-c3cnc(CO)nc3)cc12", "note": "[Compound 66, (1R,3S,5R)-2-(2-(3-acetyl-5-(2-(hydroxymethyl)pyrimidin-5-yl)-7-methyl-11H-indazol-1-yl)acetyl)-N-(6-bromo-3-cyclopropylpyridin-2-yl)-5-methyl-2-azabicyclo[3.1.0]hexane-3-carboxamide]", "IC50": "< 1"}]}]}
